Key:
Type in all cases: cell-based
[1] = system: HDAC7 (Nur77 reporter gene); assay: HDAC subtype reporter gene assay, Nur77-promoter luciferase in HeLa cells; settings: Homo sapiens, M-HeLa, read-out: % of SAHA Response for HDAC7 at 10 μM (Nur77 reporter gene), 24 hours
Procedure: (§1) Measurement of inhibition of HDAC subtypes activity in cells by reporter gene assay: HDAC subtype selectivity inhibition assay of tested compounds was carried out by several reporter gene assays experiments. Briefly, HeLa cells were seeded in 96-well plates the day before transfection to give a confluence of 50-80%. Cells were transfected with one of reporter gene plasmids containing a promoter sequences or response elements upstream of a luciferase gene construct using FuGene6 transfection reagent according to the manufacturer's instructions (Roche). The promoters or response elements including p21-promoter, gdf11-promoter, MEF-binding element (MEF2), Nur77-promoter were fused upstream to the luciferase gene reporter construct. For normalizing the transfection efficiency, a GFP expression plasmid was cotransfected. Cells were allowed to express protein for 24 hours followed by addition of individual compounds or the vehicle (DMSO). 24 hours later, the cells were harvested and the luciferase assays were performed using the luciferase assay kit according to the manufacturer's instructions (Promega). To normalize the data from the luciferase assays, GFP activity from transfected cells was measured in a microtiter-plate reading fluorimeter capable of excitation at a wavelength at 485 nm and detection of emitted light at 527 nm.

[2] = system: HDAC4/5 (MEF2 reporter gene); assay: HDAC subtype reporter gene assay, MEF-binding element (MEF2) luciferase in HeLa cells; settings: Homo sapiens, M-HeLa, read-out: % of SAHA Response for HDAC4/5 at 10 μM (MEF2 reporter gene), 24 hours
Procedure: as §1

[3] = system: HDAC3 (gdf11 reporter gene); assay: HDAC subtype reporter gene assay, gdf11-promoter luciferase in HeLa cells; settings: Homo sapiens, M-HeLa, read-out: % of SAHA Response for HDAC3 at 10 μM (gdf11 reporter gene), 24 hours
Procedure: as §1

[4] = system: HDAC class I (p21 reporter gene); assay: HDAC subtype reporter gene assay, p21-promoter luciferase in HeLa cells; settings: Homo sapiens, M-HeLa, read-out: % of SAHA Response for HDAC class I at 10 μM (p21 reporter gene), 24 hours
Procedure: as §1

Measured: Emax at 10 µM

O=C(CCCCCCC(=O)Nc1ccccc1)NO [SAHA, suberoylanilide hydroxamic acid, reference compound]
100%: all assays above

— patent publication US7863315B2, “2-indolinone derivatives as selective histone deacetylase inhibitors” (Shenzhen Chipscreen Biosciences, Ltd., priority 2008, dated 2011)
